What was measured:
[1] = target: T1, lysozyme-COT 15 in HEK293T cell lysate (Gallus gallus, UniProt P00698); experiment: Protein labeling in the presence of HEK293T cell lysate; assay type: biochemical; conditions: 13 and lysozyme-COT 15, HEK293T cell lysate, PBS, 2 hours
T1 construct: purchased
Description: There appeared to be no cross-reactivity between dialkylhydroxylamine and other proteins under these conditions.
(§1) Cell Culture: HEK-293T cells were cultured in Dulbecco's Modified Eagle Media (DMEM, Corning®) containing 10% fetal bovine serum (FBS, Sigma), 100 units/mL penicillin, and 0.1 mg/mL streptomycin (Sigma) in a humidified chamber at 37° C. with 5% CO2. Cells were passaged and dissociated with 0.25% trypsin, 0.1% ethylenediaminetetraacetic acid (EDTA) in Hanks' balanced salt solution (HBSS) (Corning®). Cells tested negative for […] by the MycoAlert™ PLUS Mycoplasma Detection Kit (Lonza) following the manufacturer's protocol.
Cell Lysate: Cell culture media was aspirated prior to lysis. Cells (10 cm dish, ˜80% confluency) was lysed by adding lysis buffer (1.0 mL, 4° C.; 150 mM NaCl, 50 mM Tris (pH 8.0), 1% triton X-100). After centrifugation (13,000×g) at 4° C., the supernatant was transferred to a clean tube, and the protein concentration was determined by BCA (bicinchoninic acid) protein assay (Pierce™ BCA Protein Assay Kit). […]
Protein Labeling Experiments: Lysozyme-COT 15 (0.75 μg, 5.0 μL, 0.15 mg/mL in deionized water) was aliquoted to form 4 samples. […] In-gel fluorescence was imaged with a Typhoon™ FLA 9500 (GE) at 532 nm with a photomultiplier tube (PMT) setting of 500 V. The experiment was carried out in triplicate.

[2] = tested on: cell surface HaloTag-GFP expressed on HEK293T cells; experiment: Live cell labeling experiment (confocal microscopy); assay type: cell-based; conditions: 10 μM 21′, then 10 μM 22′ for 1 hour, fixed
Description: Live cell labeling by hydroamination was explored. HEK293T cells were transiently transfected with a cell surface HaloTag-GFP construct, treated with 10 μM HaloTag linker-conjugated difluoropropargyl ether 21′, washed, and incubated with 10 μM TAMRA-conjugated hydroxylamine 22′ for 1 hour. The cells were then fixed and visualized by confocal microscopy.
as §1, with “Medium” for “Media”, “EDTA” for “ethylenediaminetetraacetic acid (EDTA)”, “HBSS” for “Hanks' balanced salt solution (HBSS)”, “MycoAlert” for “MycoAlert™”
Preparation for 12-Well Plate: Coverslips (15 mm circle, thickness 0.13-0.17 mm) were acid-washed according to the Cold Spring Harbor protocol (Fischer et al., Cold Spring Harb. Protoc. 2008:pdb.prot4988 (2008)). A coverslip was added to each well in a 12-well plate followed by an aqueous solution of poly-D-lysine (0.1 mg/mL, 30-70 kDa, 800 μL). The plate was gently shaken to distribute the solution evenly, incubated at room temperature for 1 hour, washed using 1 mL of autoclaved deionized water for each well, and dried overnight. […]

T1 sequence (P00698 19-147): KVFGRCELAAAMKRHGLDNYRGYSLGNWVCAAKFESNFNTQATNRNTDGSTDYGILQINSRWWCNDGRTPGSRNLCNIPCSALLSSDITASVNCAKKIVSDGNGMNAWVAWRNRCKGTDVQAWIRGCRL

## CN(O)CCOCCNC(=O)c1ccc2c(c1)C1(OC2=O)c2ccc(N(C)C)cc2Oc2cc(N(C)C)ccc21 [compound 13, 3′,6′-bis(dimethylamino)-N-(2-(2-(hydroxy(methyl)amino)ethoxy)ethyl)-3-oxo-3H-spiro[isobenzofuran-1,9′-xanthene]-6-carboxamide]
[1]
  labeling specificity in the presence of cell lysate: lysozyme was labeled exclusively
[2]
  live cell labeling (TAMRA signal): localized at the cell surface and co-localized with the GFP signal of transfected cells

— patent US20240165259A1, “BIOORTHOGONAL REACTION SUITABLE FOR CLICK/UNCLICK APPLICATIONS” (DANA-FARBER CANCER INSTITUTE, INC., priority 2021, published 2024)
